{
  "source": "patent US7833795B2",
  "about": "“Assessment of cardiovascular risk using isoprostane biomarkers and COX-2 selective inhibitors” (The Trustees of the University of Pennsylvania, priority 2004, dated 2010)",
  "key": {"[1]": {"conditions": "patients receiving rofecoxib (25 mg/day), as early as one month; cited from earlier work"}, "COX-2": {"molecular_target": "COX-2 (Homo sapiens, UniProt P35354)", "sequence (P35354 18-604)": "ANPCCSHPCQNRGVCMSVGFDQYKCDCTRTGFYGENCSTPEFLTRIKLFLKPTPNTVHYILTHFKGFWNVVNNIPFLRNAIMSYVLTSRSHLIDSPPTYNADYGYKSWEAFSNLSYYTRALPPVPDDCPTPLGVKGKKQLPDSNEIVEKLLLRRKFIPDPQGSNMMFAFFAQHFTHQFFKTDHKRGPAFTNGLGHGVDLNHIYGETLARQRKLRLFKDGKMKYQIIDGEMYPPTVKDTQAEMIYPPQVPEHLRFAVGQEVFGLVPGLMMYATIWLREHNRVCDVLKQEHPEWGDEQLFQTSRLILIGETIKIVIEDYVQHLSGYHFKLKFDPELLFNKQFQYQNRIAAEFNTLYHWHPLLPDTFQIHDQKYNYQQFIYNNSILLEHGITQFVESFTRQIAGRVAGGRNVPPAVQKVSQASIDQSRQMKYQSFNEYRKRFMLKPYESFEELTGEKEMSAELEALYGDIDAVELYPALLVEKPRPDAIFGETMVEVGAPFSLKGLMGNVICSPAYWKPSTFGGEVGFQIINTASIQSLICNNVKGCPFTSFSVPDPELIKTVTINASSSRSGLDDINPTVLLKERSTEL", "conditions": "in vivo", "protocol": "(§1) Study Design: This randomized, double-blind, placebo-controlled protocol was approved by the Institutional Review Board of the University of Pennsylvania Health System and by the Advisory Council of the General Clinical Research Center (University of Pennsylvania, Philadelphia). Written informed consent was obtained from all study volunteers. […] Routine hematology, biochemistry, and urinalysis were assessed at time of screening and at 24 hours after administration of the drugs on completion of the study.\n(§2) Measurements were performed immediately before the administration of drug (0 hrs) and 4 hours thereafter. […] A subset of the volunteers (n=5) progressed through the entire protocol on five occasions, each separated by two weeks, to assess intraindividual variability in drug response in five replicates.\n(§3) Statistical analysis: The primary response variables were: i) ex vivo COX-2 inhibition, expressed as the ratio of postdrug to predrug plasma PGE2; ii) ex vivo COX-1 inhibition, expressed as the ratio of postdrug to predrug serum TxB2; iii) urinary PGI-M inhibition, expressed as the ratio of concentration post drug to post placebo administration; iv) urinary Tx-M inhibition, expressed as the ratio of concentration post drug to post placebo administration; and v) plasma drug concentrations four hours post drug administration. […]"}, "COX-1": {"molecular_target": "COX-1 (Homo sapiens, UniProt P23219)", "sequence (P23219 24-599)": "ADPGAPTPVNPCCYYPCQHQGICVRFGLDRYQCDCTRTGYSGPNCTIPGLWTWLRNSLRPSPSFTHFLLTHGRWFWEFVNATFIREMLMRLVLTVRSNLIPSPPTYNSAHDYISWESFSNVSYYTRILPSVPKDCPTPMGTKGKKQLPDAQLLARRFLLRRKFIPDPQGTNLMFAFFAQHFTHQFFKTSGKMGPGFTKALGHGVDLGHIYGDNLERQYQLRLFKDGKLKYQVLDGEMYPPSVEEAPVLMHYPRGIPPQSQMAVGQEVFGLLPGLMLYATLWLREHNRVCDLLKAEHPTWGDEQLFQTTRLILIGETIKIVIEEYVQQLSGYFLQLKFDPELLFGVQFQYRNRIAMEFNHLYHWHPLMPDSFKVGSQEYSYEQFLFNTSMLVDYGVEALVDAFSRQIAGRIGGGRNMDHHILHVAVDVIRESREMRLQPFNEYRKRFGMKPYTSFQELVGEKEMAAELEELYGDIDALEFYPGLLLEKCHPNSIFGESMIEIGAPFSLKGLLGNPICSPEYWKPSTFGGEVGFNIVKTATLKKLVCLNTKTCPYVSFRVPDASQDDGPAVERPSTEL", "conditions": "in vivo", "protocol": "as §1, §2, §3"}, "PGI2 biosynthesis": {"test_system": "PGI2 biosynthesis", "test": "Urinary 2,3-dinor-6-keto PGF1α (PGI-M) in volunteers", "format": "in vivo, human", "conditions": "single dose (rofecoxib 25 mg, celecoxib 200 mg), 4 hours", "description": "(§4) Written informed consent was obtained from all study volunteers.\n(§5) The coefficients of variation for both assays were <10%.\n(§6) All variables were log transformed to approximate normality. Three extreme outlying datapoints were removed."}, "[2]": {"test": "Plasma drug concentrations by LC tandem MS", "format": "in vivo, human", "conditions": "for concentration at 4 h: human, plasma, 4 hours after dosing, single dose (rofecoxib 25 mg, celecoxib 200 mg)"}, "TxA2 formation": {"test_system": "TxA2 formation", "test": "Urinary 11-dehydro TxB2 (Tx-M) in volunteers", "format": "in vivo, human", "description": "as §4, §5, §6"}},
  "note": "Like-named read-outs stand apart in the source and are kept apart here.",
  "data": [
    {"smiles": "CS(=O)(=O)c1ccc(C2=C(c3ccccc3)C(=O)OC2)cc1", "note": "[rofecoxib]", "values": [
      {"measurement": "elevation of blood pressure", "setting": "[1]", "value": "3-4 mm Hg"},
      {"measurement": "degree of inhibition of COX-2 dependent PGE2 formation ex vivo", "setting": "COX-2", "value": 44.8, "unit": "%"},
      {"measurement": "COX-1 derived serum TxB2", "setting": "COX-1", "value": "failed to inhibit significantly"},
      {"measurement": "urinary PGI-M compared to placebo", "setting": "PGI2 biosynthesis", "value": "depressed urinary PGI-M"},
      {"measurement": "concentration at 4 h", "setting": "[2]; read-out: plasma drug concentration, median", "value": 215, "unit": "ng/mL"},
      {"measurement": "concentration at 4 h", "setting": "[2]; read-out: plasma drug concentration, range", "value": "115 to 658", "unit": "ng/mL"},
      {"measurement": "drop in plasma concentration per unit increase in BMI", "setting": "[2]; rofecoxib 25 mg, 4 hours", "value": "about 2%"},
      {"measurement": "COX-1 inhibition in vivo (urinary Tx-M) in Pro17Leu variant of COX-1", "setting": "TxA2 formation; rofecoxib 25 mg", "value": "absence of COX-1 inhibition in vivo"},
      {"measurement": "excretion of urinary Tx-M compared to placebo", "setting": "TxA2 formation; single dose (rofecoxib 25 mg, celecoxib 200 mg), 4 hours", "value": "not excretion of urinary Tx-M"}
    ]}
  ]
}
